Test results as given in ChEMBL document CHEMBL5604062, “ASAP - ZIKV NS2B-NS3 protease fluorescence dose response” (2024).
Several values for one entry are separate records, joined by “and”; a condition that tells them apart may be missing. Identical values can stand only once.

These molecules were tested against Nonstructural protein 3 (Zika virus, UniProt A0A024AXB9) (assay: Functional biochemical assay to identify treatments for viral infectious disease that targets Zika NS2B-NS3 protease. Utilizing a direct enzyme activity measurement method, reading the fluorescence intensity is used to characterize the relative potency of inhibitors as IC50.).
Sequence of Nonstructural protein 3 (A0A024AXB9 whole entry): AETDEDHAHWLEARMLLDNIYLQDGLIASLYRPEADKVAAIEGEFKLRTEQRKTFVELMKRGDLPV
Set-up: species or system PRVABC59

SMILES	IC50
CNC(=O)CN1CCC([C@@H](NC(=O)OCc2ccccc2)C(=O)Nc2cccc(CN)c2)CC1	> 99.5 µM
CN1CC=C(c2ccc(S(=O)(=O)Nc3ccc(Cl)cc3C(=O)O)cc2)CC1	> 99.5 µM
c1ccc2c(CN3CCC[C@H](c4c[nH]c5ccccc45)C3)c[nH]c2c1	> 99.5 µM
NCc1cccc(NC(=O)[C@@H](Cc2c[nH]c3ccccc23)NC(=O)OCc2ccccc2)c1	> 99.5 µM
O=C(Nc1ccc2c(c1)CNC2)c1cc(F)cc(-c2c[nH]c(=O)c(F)c2)c1	0.073 µM and 0.043 µM
CC[C@H](C(=O)Nc1cccc(CN)c1)n1cc(Br)c(C(F)(F)F)n1	> 99.5 µM
CCn1cc(-c2cccc(-c3ccccc3)c2)nc(N2CC[C@@H](CO)C2)c1=O	> 99.5 µM
CCn1ccnc(N2CC[C@H](c3ccc(OC)nc3)C2)c1=O	> 99.5 µM
C[C@@H](NCc1c[nH]c2ccccc12)c1cscn1	> 99.5 µM
CC(C)(C)OC(=O)NCc1cccc(NC(=O)C[C@H](N)c2ccc(OCc3ccccc3)c(Br)c2)c1	> 99.5 µM
CC(=O)N1CCC[C@H]1C(=O)N[C@@H](C(=O)Nc1cccc(CN)c1)c1ccc(OCc2ccccc2)cc1	> 99.5 µM
O=C1OCc2ccc(NC(=O)[C@H]3CCNC34CCCC4)cc21	> 25 µM
NCc1nc(CNC(=O)c2cc(Cl)cc(NC(=O)OCc3ccccc3)c2)cs1	> 99.5 µM
CC(C)(C)c1[nH]c2ccc(F)cc2c1Cc1ccc(-c2nnn[nH]2)cc1	> 99.5 µM
O=C(Nc1ccc2c(c1)CNC2)c1c(Cl)ccc2c1OCO2	> 25 µM
CCn1cc(-c2ccccc2N)nc(N2CC[C@@H](CO)C2)c1=O	> 99.5 µM
C[C@@]1(CNC(=O)c2cc(Cl)cc(NC(=O)OCc3ccccc3)c2)CNCCOC1	> 99.5 µM
CCOc1cc(N2CCN(C)CC2)ccc1NS(=O)(=O)c1ccc(Cl)cc1C(=O)O	> 99.5 µM
O=C(O)Cn1ccnc(N2CC[C@@H](CO)C2)c1=O	> 99.5 µM
c1ccc2c([C@H]3CCN(CC[C@H]4CCCO4)C3)c[nH]c2c1	> 99.5 µM
Cc1cc(N2CCCCC2)ccc1NS(=O)(=O)c1ccc(Cl)cc1C(=O)O	> 99.5 µM

SMILES	IC50
O=C(O)CCc1cccc(NC(=O)c2cc(Cl)cc(NC(=O)OCc3ccccc3)c2)c1	> 99.5 µM
O=C(O)c1cc(Cl)ccc1NS(=O)(=O)c1ccc(OCc2ncccn2)cc1	> 99.5 µM
Cc1cc(C(=O)Nc2ccc3c(c2)CNC3)c2cn[nH]c2c1	0.077 µM and 0.066 µM
CCc1sc(C(=O)Nc2cccc(-c3nnn[nH]3)c2)cc1C	> 99.5 µM
NCc1cccc(NC(=O)c2cc(C3CC3)nc3ccc(Cl)cc23)c1	> 99.5 µM
NCc1cc(Cl)cc(C(=O)Nc2ccc3c(c2)C(=O)OC3)c1	> 25 µM
CC(C)N1CCc2nc(NC(=O)c3cc(Cl)cc(NC(=O)OCc4ccccc4)c3)sc2C1	> 99.5 µM
Cc1cc(C(=O)Nc2cccc(CN)c2)cc(NCc2cnn(C)c2)n1	> 99.5 µM
C=CC[C@H](Nc1cc([C@H]2CCOC2)ccn1)c1cc(C2CC2)n(C)n1	> 25 µM
Cc1c(C(=O)Nc2cccc(CN)c2)cc(C2CCC2)n1C	> 99.5 µM
Cc1cc(NC(=O)c2cc(C3CC3)n(C)c2C)cnc1N1CCCCC1	> 25 µM
C[C@@H](NC(=O)c1cc(Cl)ccc1NS(=O)(=O)c1ccc(Oc2ccccc2Cl)cc1)[C@H]1CCCO1	> 99.5 µM
NCCCc1ccnc(NC(=O)c2cc(C3CC3)no2)c1	> 25 µM
CNC(=O)[C@H](Nc1cccc(C(=O)O)c1)c1cc(Cl)cc2[nH]ncc12	> 99.5 µM
CC(C)(C)OC(=O)N1Cc2cc(NC(=O)c3cc(Cl)cc4c3cnn4[C@@H]3CCCCO3)ccc2[C@H]1CO	> 25 µM
Cn1ccc(CS(=O)(=O)N[C@@H](C(=O)Nc2cccc(CN)c2)c2ccc(OCc3ccccc3)cc2)n1	> 99.5 µM
CCn1cc(C2=CCCNC2)nc(N2CC[C@@H](CO)C2)c1=O	> 99.5 µM
O=C(c1cc(Cl)cc2[nH]ncc12)N1CCC(C2CCNCC2)CC1	> 99.5 µM
O=C(Nc1ccc2c(c1)S(=O)(=O)NC2)c1cc(Cl)cc2[nH]ncc12	> 25 µM
NCc1cccc(NC(=O)[C@H](NC(=O)OCc2ccccc2)C2CCN(Cc3ccccc3)CC2)c1	> 99.5 µM
CS(=O)(=O)c1cccc(NC(=O)c2cc(Cl)cc(NC(=O)OCc3ccccc3)c2)c1	> 99.5 µM

SMILES	IC50
NC[C@H]1C[C@H](NC(=O)[C@@H](NC(=O)OCc2ccccc2)c2ccc(OCc3ccccc3)cc2)C1	> 99.5 µM
Cn1cc(NS(=O)(=O)c2ccc(Oc3ccccc3Cl)cc2)c(C(=O)O)n1	> 99.5 µM
Cc1c(C(=O)Nc2cc(SC3COC3)ccn2)cc(C2CC2)n1C	> 25 µM
O=C(O)c1cc(Cl)ccc1S(=O)(=O)Nc1nn(Cc2ccccc2)cc1Cl	> 99.5 µM
CCCC[C@H](N)C(=O)N[C@@H](C(=O)NCc1ccc(C(N)=O)cc1)c1ccc(OCc2ccccc2)cc1	> 99.5 µM
O=c1oc2cccnc2n1CC=Cc1ccccc1	> 99.5 µM
O=C(O)Cc1c[nH]c2cc(-c3cc(Cl)cc(NC(=O)OCc4ccccc4)c3)ccc12	> 99.5 µM
CC(C)(C)OC(=O)NCc1cccc(NC(=O)[C@@H](NC(=O)OCc2ccccc2)c2ccc(O)cc2)c1	> 99.5 µM
N#Cc1cc(Cl)cc(C(=O)Nc2cccc(-n3nn[nH]c3=O)c2)c1	> 99.5 µM
CCn1c(=O)c(N2CC[C@H](CO)C2)nc2cc(C(=O)NS(C)(=O)=O)ccc21	> 99.5 µM
NCc1cccc(NC(=O)[C@H](NC(=O)OCc2ccccc2)c2cccc(OCc3ccccn3)c2)c1	> 99.5 µM
O=C(N[C@@H](C(=O)NCc1cccnc1)c1ccc(OCc2ccccc2)cc1)OCc1ccccc1	> 99.5 µM
O=C(Nc1ccc2c(c1)CNC2)c1cc(F)cc2c1CCC2	0.099 µM and 0.09 µM
CCCCCC(=O)N[C@H](C(=O)NCc1cccc(CN)c1)c1ccc(OCc2ccccc2)cc1	73.3 µM and 80.1 µM
Cn1cc2cc(C#N)cc(-c3ccc4[nH]c(C(=O)O)cc4c3)c2n1	> 25 µM
NCc1cccc(NC(=O)C[C@H](CC(N)=O)c2ccc(F)cc2)c1	> 99.5 µM
CN(C)Cc1cccc(-c2ccc(S(=O)(=O)Nc3ccc(Cl)cc3C(=O)O)cc2)c1	> 99.5 µM
Cc1c(C(=O)Nc2cccc(C(=O)NC3CC3)c2)cc(C2CC2)n1C	> 25 µM
O=C(Nc1cc(Cl)cc(-c2cc3cc(C(=O)O)ncn3c2)c1)OCc1ccccc1	> 99.5 µM
O=C(O)c1cc(Cl)ccc1NS(=O)(=O)c1ccc(OCc2ccncc2)cc1	> 99.5 µM

The remaining lines, values ahead:

IC50	SMILES
79.2 µM	NCc1cccc(NC(=O)[C@@H](NC(=O)OCc2ccccc2)c2ccc(C(F)(F)F)cc2)c1
17.9 µM	COc1ncccc1-c1ccc([C@@H](NC(=O)OCc2ccccc2)C(=O)Nc2cccc(CN)c2)cc1
6.67 µM	NCc1cc(NC(=O)c2cc(Cl)cc(NC(=O)OCc3ccccc3)c2)cc(C2CC2)c1
> 25 µM	CC(C)NC(=O)[C@H](Nc1ccc2c(c1)CN(CC(F)F)C2)c1cc(Cl)cc2[nH]ncc12
> 25 µM	Cn1nc([C@H](Nc2cc([C@H]3CCOC3)ccn2)C(F)(F)F)cc1C1CC1
7.87 µM	NCCc1cccc(NC(=O)[C@H]2[C@H]3CCCCC[C@H]3[C@H]2NC(=O)OCc2ccccc2)c1
85.2 µM	NC[C@H]1C[C@@H](NC(=O)[C@@H](NC(=O)OCc2ccccc2)c2ccc(OCc3ccccc3)cc2)C1
> 25 µM	CC1(c2nc(C(=O)Nc3cc(-c4cccnc4)ccn3)no2)CC1
21.1 µM	Cc1ccncc1-c1cc(CN)cc([C@@H]2C[C@H]2c2cc(Cl)cc(NC(=O)OCc3ccccc3)c2)c1
3.4 µM	O=C(Nc1ccc2c(c1)CNC2)c1cccc2ncccc12
21 µM	NCc1cccc(N2CCN(C(=O)OCc3ccccc3)[C@H](c3ccc(OCc4ccccc4)cc3)C2=O)c1
> 25 µM	CNC(=O)c1ccnc(NC(=O)c2cc(C3CC3)n(C)c2C)c1
6.63 µM	Cn1nc(C(=O)Nc2ccc3c(c2)CNC3)c2cc(Br)ccc21
0.106 µM	CC(C)Oc1ccc(Cl)cc1[C@H](Nc1ccc2c(c1)CNC2)C(=O)NCC(F)F
1.26 µM	CC(C)O[C@]1(C)C(=O)Nc2cc(F)cc(C(=O)Nc3ccc4c(c3)CNC4)c21
1.61 µM	CCc1cc(C(=O)Nc2ccc3c(c2)CNC3)cc2cn[nH]c12
3.39 µM	CC(C)CCN1Cc2ccc(NC(=O)c3cc(Cl)cc4[nH]ncc34)cc2C1
5.07 µM	NCc1cccc(NC(=O)[C@H](NC(=O)OCc2ccccc2)c2ccc(OCc3ccccc3)c(Br)c2)c1
0.382 µM	O=C(Nc1ccc2c(c1)CNC2)c1cccc2ccncc12
0.28 µM	CN(C)C(=O)CCCc1nc2c(C(=O)Nc3ccc4c(c3)CNC4)cc(Cl)cc2[nH]1

IC50	SMILES
88.1 µM	Cc1cc(-c2cccc([C@@H](NC(=O)OCc3ccccc3)C(=O)Nc3cccc(CN)c3)c2)ccn1
0.876 µM	O=C(Nc1ccc2c(c1)CNC2)c1cc(Cl)ccc1-n1cncn1
60.9 µM	CC(C)NC(=O)[C@H](Nc1cccc(-c2nn[nH]n2)c1)c1cc(Cl)cc(NC(=O)OCc2ccccc2)c1
14 µM	O=C(Nc1cc(Cl)cc(-c2cc(NCc3ccccc3)c(C(=O)O)cn2)c1)OCc1ccccc1
79.5 µM	NCc1cccc(NC(=O)[C@H](NC(=O)OCc2ccccc2)c2ccc(OCCc3cscn3)cc2)c1
73.2 µM	COc1ccc(F)cc1-c1ccc(S(=O)(=O)Nc2ccc(Cl)cc2C(N)=O)cc1
66.2 µM	c1ccc2c(CN3CCC(c4ccn[nH]4)CC3)c[nH]c2c1
16.8 µM	Clc1cccc([C@H](C#Cc2ccccc2)Nc2cccc(-c3nn[nH]n3)c2)c1
21.9 µM	Cn1nc2c(c1NC(=O)c1cc(Cl)cc(NC(=O)OCc3ccccc3)c1)CNCC2
> 0.782 µM	O=Cc1ccc(N2CCC(C(=O)NC[C@@H]3CCCN4CCCC[C@H]34)CC2)cc1
67 µM	NC[C@H]1C[C@](F)(CNC(=O)c2cc(Cl)cc(NC(=O)OCc3ccccc3)c2)C1
5.57 µM	C[C@@]1(c2cccc(CN)c2)C[C@H]1c1cc(Cl)cc(NC(=O)OCc2ccccc2)c1
0.268 µM	C#Cc1cc(Cl)cc(C(=O)Nc2ccc3c(c2)CNC3)c1
32.9 µM	O=C(O)c1cc2cc(-c3cc(Cl)cc(C4CC4)c3)ccc2[nH]1
3.34 µM	O=C(Nc1ccc2c(c1)CNC2)c1cc(Cl)cc2nccnc12
6.93 µM	NCc1cccc(NC(=O)C[C@@H](NC(=O)OCc2ccccc2)c2ccc(OCc3ccccc3)cc2)c1
99.3 µM	Cc1nc(C2CCN(Cc3c[nH]c4ccccc34)CC2)sc1C(=O)O
0.736 µM	Cc1cc(CN)cc(NC(=O)c2cc(Cl)cc3[nH]ncc23)c1
34.4 µM	O=C(O)c1cc(Cl)ccc1NS(=O)(=O)c1ccc(-c2cncs2)cc1
